Results on 19 compounds are retold here after patent US5948791A, “Quinoline derivatives for treating malaria” (Hoffmann-La Roche Inc., priority 1995, dated 1999).

≈ marks a conversion by molar mass, not a printed value. Where a name gives a salt, the structure may show the parent alone. Read-outs that look alike come from different tables or passages of the source.

One experiment concerns Plasmodium falciparum K1. Description: Growth inhibition of Plasmodium falciparum K1 (chloroquine-resistant) in vitro, [G-3H]-hypoxanthin incorporation. The experiment is classed as cell-based, Plasmodium falciparum (strain K1). The conditions noted are these: for IC50: Plasmodium falciparum, K1, 72 h, read-out: IC50 for P. falciparum K1; for Resistance index: ratio of the IC50 for K1 and the IC50 for NF54. The text has this: (§1) The ratio of the growth inhibition of a strain which is especially resistant to chloroquine and of a strain which is sensitive to chloroquine gives as the "resistance index" a measurement for the absence of a cross-resistance with chloroquine. Since, for all novel compounds the resistance index lies between 0.7 and 2.5, they inhibit the growth of sensitive as well as resistant strains of the malaria pathogen equally effectively. They are accordingly also suitable for the prophylaxis of a malaria disease and also for the treatment of a malaria disease even when chloroquine is ineffective. The good activity against malaria pathogens is also shown in animal experiments. The effective doses measured after oral and subcutaneous administration to mice infected with malaria pathogens are shown in Table 2 hereinafter.
(§2) Test method for the determination of the activity against Plasmodium falciparum in vitro
(§3) The preparations are tested on intraerythrocytary stages of Plasmodium falciparum from asynchronous cultures according to the method of Desjardin et al. (Desjardins, R. E. et al: Quantitative assessment of antimalarial activity in vitro by a semiautomated microdilution technique. Antimicrob. Agents Chemother. 16, 710-718, (1979)).
(§4) The culture medium consists of RPMI 1640 with the addition of 25 mM HEPES, 25 mM NaHCO3, 100 μg/ml neomycin and […] (A^+). Human-A^+ erythrocytes are used as the Plasmodium falciparum host cells. The parasites are maintained at 37° C. in an atmosphere of 3% O2, 4% CO2, 93% N2 and 95% relative humidity.
(§5) In order to determine the activity, the preparations are dissolved in DMSO, pre-diluted in the culture medium to a suitable starting concentration and subsequently titrated-out on to microtitre plates in the 2nd stage over 6-7 steps. After the addition of the parasite culture (0.7% parasitemia in 2.5% erythrocyte suspension) the test plates are incubated under the conditions given above for 72 h. The parasite growth in the different preparation concentrations is determined using [G-^3 H]-hypoxanthin incorporation compared to untreated control cultures on the same test plates. The 50% growth inhibition (IC50) is calculated according to logit regression analysis from the resulting dosage-activity curve.
(§6) The preparations are tested on at least one chloroquine-resistant and one chloroquine-sensitive Plasmodium falciparum strain. Additional sensitive and resistant strains are included for further characterization.

Experiment [1] concerns Plasmodium falciparum strain NF54. The experiment is described as follows: Growth inhibition of Plasmodium falciparum NF54 (chloroquine-sensitive) in vitro, [G-3H]-hypoxanthin incorporation. It counts as cell-based. The settings on record: chloroquine-sensitive strain NF54, 72 h, read-out: IC50 for P. falciparum NF54.
Source text: as §1, §2, §3, §4, §5, §6

The test system of the next experiment is Plasmodium berghei. The experiment is described as follows: animal or person. The experiment is classed as in vivo, Plasmodium berghei (strain ANKA) in mice. The conditions noted are these: Plasmodium berghei, mice, blood smears 48 h after treatment. The method, then:
Test method for the determination of the activity against Plasmodium berghei in vivo
The preparations are tested on mice infected with malaria pathogens (Plasmodium berghei). Male albino mice (IBM:MORO(SPF), FUELLINSDORF) weighing about 25 g are used as the test animals. They are kept in climatized rooms at 21-22° C. in groups of 5 animals per cage. They receive ad libitum a diet feed with a low PABA content (NAFAG FUTTER " No. 9009 PAB-45, PABA content 45 mg/kg) and drinking water. On the first day of the test (D0) the test animals are infected with Plasmodium berghei (strain ANKA). For this there is used heparinized blood of a donor mouse with about 30% parasitemia, which is diluted with physiological saline such that it contains 10^8 parasitized erythrocytes per ml. 0.2 ml of this suspension is injected intravenously (i.v.) into the mice to be treated and into the control mice.
The substances to be tested are dissolved or suspended in distilled water or in a mixture of 7% Tween 80, 3% alcohol (96%) and water. Usually, 0.25 ml of this solution or suspension is administered once subcutaneously and perorally to groups of 5 test animals. Treatment is effected 24 hours after the infection. 10 control animals are treated in the same manner with solvent or suspension medium per test.
All substances are tested in a first test in a single dosage of 10 mg/kg. Only those substances which in this test (10 mg/kg) have shown a parasitaemia reduction of 90% are used for the titration. Suitable dilutions of the test substance can be used to obtain an accurate titration of the activity.
48 hours after the treatment (D+3) blood smears are prepared from all animals using blood from tail veins and are stained with giemsa. […] The difference in the average values of the infection rates of control group (100%) and treated groups is calculated and expressed as a percentage reduction (GI%). The ED50 or ED90 is determined mathematically by means of the JMP programme (nonlinear fit). The ED50 (ED90) in mg/kg is that dose which after single administration reduces the average erythrocyte infection rate by 50% (90%) in comparison to the control group.

As to `COc1ccc(CNC(C)(C)CNc2ccnc3cc(Cl)ccc23)c(OC)c1.Cl.Cl` [Example 37, N1-(7-Chloro-quinolin-4-yl)-N2-(2,4-dimethoxy-benzyl)-2-methyl-propane-1,2-diamine dihydrochloride], in the experiment with Plasmodium falciparum K1, the IC50 (as a rule, the point on the concentration scale where inhibition reaches its midpoint) was found to be 0.011 µg/mL and the Resistance index is recorded as 1.0. For the same compound, the IC50 in experiment [1] was determined as 0.011 µg/mL.
As to `CC(C)(CNc1ccnc2cc(Cl)ccc12)NCc1ccc(C(F)(F)F)cc1C(F)(F)F.Cl.Cl` [Example 59, N1-(7-Chloro-quinolin-4-yl)-N2-(2,4-bis-trifluoromethyl-benzyl)-2-methyl-propane-1,2-diamine dihydrochloride], in the experiment on Plasmodium falciparum K1, the IC50 was 0.186 µg/mL and the Resistance index is reported as 1.1. In experiment [1], the IC50 amounted to 0.166 µg/mL.
The like results for `CC(C)(CNc1ccnc2cc(Cl)ccc12)NCc1ccc2c(c1)OCO2.Cl.Cl` [Example 42, N1-(7-Chloro-quinolin-4-yl)-N2-benzo[1,3]dioxol-5-ylmethyl-2-methyl-propane-1,2-diamine dihydrochloride] were, in that order, 0.0126 µg/mL, 1.4 and 0.0087 µg/mL.
The like results for `CC(C)(CNc1ccnc2cc(Cl)ccc12)NCc1ccc2ccccc2c1.Cl.Cl` [Example 53, N1-(7-Chloro-quinolin-4-yl)-N2-(naphthalen-2-yl-methyl)-2-methyl-propane-1,2-diamine dihydrochloride] were, in that order, 0.0149 µg/mL, 0.9 and 0.0159 µg/mL.
As for `Oc1ccccc1CN[C@H]1CC[C@@H](Nc2ccnc3cc(Cl)ccc23)CC1` [Example 78, cis-N1-(7-Chloro-quinolin-4-yl)-N4-(2-hydroxy-benzyl)-cyclohexane-1,4-diamine dihydrochloride], the inhibition in vivo at 10 mg/kg with Plasmodium berghei (po, single peroral dose of 10 mg/kg, read-out: Growth inhibition in % after po administration (GI%, percentage reduction of the parasitemia)) was found to be 99.9%; in the experiment with Plasmodium berghei (sc, single subcutaneous dose of 10 mg/kg, read-out: Growth inhibition in % after sc administration (GI%, percentage reduction of the parasitemia)), 100%.
For the compound `COc1ccc(CNC(C)(C)CNc2ccnc3cc(Cl)ccc23)cc1.Cl.Cl` [Example 35, N1-(7-Chloro-quinolin-4-yl)-N2-(4-methoxy-benzyl)-2-methyl-propane-1,2-diamine dihydrochloride], in the experiment with Plasmodium falciparum K1, the IC50 was 0.0133 µg/mL and the Resistance index came out at 2.1. Moreover, in experiment [1], the IC50 is 0.0064 µg/mL.
The like results for `CC(C)(CNc1ccnc2cc(Cl)ccc12)NCc1ccoc1.Cl.Cl` [Example 55, N1-(7-Chloro-quinolin-4-yl)-N2-(furan-3-yl-methyl)-2-methyl-propane-1,2-diamine dihydrochloride] were, in that order, 0.0145 µg/mL, 1.9 and 0.0078 µg/mL.
On the same counts, the results for `COc1cccc(CNC(C)(C)CNc2ccnc3cc(Cl)ccc23)c1OC.Cl.Cl` [Example 36, N1-(7-Chloro-quinolin-4-yl)-N2-(2,3-dimethoxy-benzyl)-2-methyl-propane-1,2-diamine dihydrochloride] are 0.0207 µg/mL, 1.3 and 0.0162 µg/mL.
Turning to `CC(C)(CNc1ccnc2cc(Cl)ccc12)NCc1cccc(Cl)c1Cl.Cl.Cl` [Example 26, N1-(7-Chloro-quinolin-4-yl)-N2-(2,3-dichloro-benzyl)-2-methyl-propane-1,2-diamine dihydrochloride], the IC50 in the experiment with Plasmodium falciparum K1 is 0.0373 µg/mL; in experiment [1] it was 0.0263 µg/mL. Further, the Resistance index in the experiment on Plasmodium falciparum K1 amounted to 1.4.
The like results for `COc1ccc(OC)c(CNC(C)(C)CNc2ccnc3cc(Cl)ccc23)c1.Cl.Cl` [Example 38, N1-(7-Chloro-quinolin-4-yl)-N2-(2,5-dimethoxy-benzyl)-2-methyl-propane-1,2-diamine dihydrochloride] were, in that order, 0.0151 µg/mL, 0.0101 µg/mL and 1.5.
The like results for `CC(C)(CNc1ccnc2cc(Cl)ccc12)NCc1cccc(O)c1.Cl.Cl` [Example 32, N1-(7-Chloro-quinolin-4-yl)-N2-(3-hydroxy-benzyl)-2-methyl-propane-1,2-diamine dihydrochloride] were, in that order, 0.0147 µg/mL, 0.0076 µg/mL and 1.9.
The like results for `C[C@H](CNc1ccnc2cc(Cl)ccc12)NCc1ccc(N(C)C)cc1.Cl.Cl.Cl` [Example 1, (2R)-N1-(7-Chloro-quinolin-4-yl)-N2-(4-dimethylamino-benzyl)-propane-1,2-diamine trihydrochloride] were, in that order, 0.0175 µg/mL, 0.0126 µg/mL and 1.4.
As for `CCN(CC)Cc1cc(Nc2ccnc3cc(Cl)ccc23)ccc1O` [Amodiaquine, reference compound], the IC50 in the experiment with Plasmodium falciparum K1 is 0.0035 µg/mL (≈ 9.84 nM); in experiment [1], 0.0025 µg/mL (≈ 7.03 nM).
`COc1cc(CNC(C)(C)CNc2ccnc3cc(Cl)ccc23)cc(OC)c1OC.Cl.Cl` [Example 41, N1-(7-Chloro-quinolin-4-yl)-N2-(3,4,5-trimethoxy-benzyl)-2-methyl-propane-1,2-diamine dihydrochloride]: the IC50 in the experiment with Plasmodium falciparum K1 stood at 0.0187 µg/mL; in experiment [1], 0.0135 µg/mL. For the same compound, the Resistance index in the experiment on Plasmodium falciparum K1 is 1.4.
As for `COc1cc(CN[C@H]2CCCC[C@@H]2Nc2ccnc3cc(Cl)ccc23)cc(OC)c1OC.Cl.Cl` [Example 65, (1S,2S)-N1-(7-Chloro-quinolin-4-yl)-N2-(3,4,5-trimethoxy-benzyl)-cyclohexane-1,2-diamine dihydrochloride], the IC50 with Plasmodium falciparum K1 was 0.0253 µg/mL; in experiment [1] it was 0.0099 µg/mL. Besides, the Resistance index with Plasmodium falciparum K1 is reported as 2.6.
The like results for `COc1ccc(CNC(C)(C)CNc2ccnc3cc(Cl)ccc23)cc1OC.Cl.Cl` [Example 39, N1-(7-Chloro-quinolin-4-yl)-N2-(3,4-dimethoxy-benzyl)-2-methyl-propane-1,2-diamine dihydrochloride] were, in that order, 0.0103 µg/mL, 0.0078 µg/mL and 1.3.
The like results for `C[C@@H](CNCc1ccc(N(C)C)cc1)Nc1ccnc2cc(Cl)ccc12.Cl.Cl.Cl` [Example 2, (2S)-N2-(7-Chloro-quinolin-4-yl)-N1-(4-dimethylamino-benzyl)-propane-1,2-diamine trihydrochloride] were, in that order, 0.0148 µg/mL, 0.0071 µg/mL and 2.1.
Take `CC(C)(CNc1ccnc2cc(Cl)ccc12)NCc1ccco1.Cl.Cl` [Example 54, N1-(7-Chloro-quinolin-4-yl)-N2-(furan-2-yl-methyl)-2-methyl-propane-1,2-diamine dihydrochloride]: the IC50 with Plasmodium falciparum K1 amounted to 0.029 µg/mL; in experiment [1] it was 0.0193 µg/mL. In addition, in the experiment with Plasmodium falciparum K1, the Resistance index was 1.5.
On the same counts, the results for `CC(C)(CNc1ccnc2cc(Cl)ccc12)NCc1cccc2ccccc12.Cl.Cl` [Example 52, N1-(7-Chloro-quinolin-4-yl)-N2-(naphthalen-1-yl-methyl)-2-methyl-propane-1,2-diamine dihydrochloride] are 0.0556 µg/mL, 0.0346 µg/mL and 1.6.
